According to patent publication US11358933B2, “Compounds and methods for inhibiting CYP26 enzymes” (Queen's University at Kingston, priority 2017, dated 2022):

Assays:
CYP26B1 = CYP26B1 (Homo sapiens (Human), UniProt Q9NR63); experiment: Cell-based inhibitor assay ([3H]-RA metabolism), CYP26B1 stably transfected HeLa cells
Method: CYP26A1 or CYP26B1 stably transfected HeLa cells were maintained in Minimum Essential Medium (MEM) containing 10% fetal bovine serum (FBS) and 100 μg/mL hygromycin. Exponentially growing cells were harvested by incubation in trypsin. Cells were then collected and re-plated in 48-well culture plates at 5×10^5 cells in 0.2 mL of culture medium containing 0.05 μCi [^3H]-RA in the presence or absence of increasing concentrations of a test compound. The test compounds were diluted in dimethyl sulfoxide (DMSO) and then added in duplicate to wells at 0.01, 0.1, 1, 10 and 100 μM final concentration. As a positive control for inhibition of RA metabolism, cells were also incubated with ketoconazole at the same concentrations as above. Cells were incubated for 3 hours at 37° C. Retinoids were then extracted using the procedure of Bligh, et al., (1959), Canadian Journal of Biochemistry 37, 911-917, which was modified by using dichloromethane instead of chloroform. Each sample's water soluble radioactivity level was quantified using a β-scintillation counter (using Ecolume scintillation fluid, available from MP Biomedicals of Solon, Ohio, USA). IC50 values represented the concentration of inhibitor required to inhibit all trans-RA metabolism by 50%, and were derived from log transformed data.

[1] = test system: RA target genes in primary human bone marrow cells; experiment: RA target gene expression in primary human bone marrow stromal cells; type: cell-based; settings: co-treatment with RA
[2] = test system: primary human bone marrow stromal cells; experiment: RA metabolism by primary human bone marrow stromal cells; type: cell-based; settings: pre-treated with DMSO or 1 μM RA 24 hours; 1 μM compound (FIG. 5)
Method: (§1) These experiments are to assess the ability of primary cells, or cell lines to metabolize RA, and to determine the effect of inhibition of CYP26A1 or CYP26B1 on this ability. For these experiments, cells are plated into 48-well plates and treated with a radiolabeled (^3H) RA. The extent of conversion of this labeled RA to water soluble metabolites is determined as above for in the cell-based inhibitor assay. Primary human bone marrow stromal cells (available from Lonza) were cultured in MyeloCult (available from Stem Cell Technologies, Vancouver, Canada). Mouse OP9 bone marrow stromal cells and MC3T3 pre-osteoblasts were cultured as above. Cells are plated in the appropriate culture medium and allowed to form a monolayer. Cells are then pre-treated with either DMSO (vehicle control) or RA (1 μM) for 24 hours to induce CYP26 expression. Vehicle, and RA induced cells are then exposed to ^3H-RA in the presence or absence of test CYP26 inhibitor to examine the effects on RA metabolism. Cells are incubated for 3 hours with labeled RA, and metabolites extracted and analyzed as above.

MC3T3 cells = experiment: RA metabolism by MC3T3 pre-osteoblasts; type: cell-based, mouse
Method: as §1

THP-1 cells = experiment: Leukemia cell colony formation, THP-1 cells; type: cell-based, human; settings: RA plus compound, culture with stromal cells
Method: This experiment is used to test the long-term proliferative ability of hematopoietic stem and progenitor cells as well as leukemic stem cells. Colony forming ability in long term cultures is indicative of stem/progenitor cell activity. […] For these experiments, bone marrow stromal and leukemic cell co-cultures are prepared as described above and treated with RA and/or CYP26 inhibitor compound for 72 hours. After the treatment period, leukemic cells are collected and re-plated in semi-solid methylcellulose medium to assess colony forming ability. 500 leukemic cells are plated per dish in 35 mm plates in 1.1 ml of MethoCult (available from STEMCELL Technologies, Vancouver, Canada). Triplicate plates are prepared per treatment, and cultures are grown for 14-16 days in a CO2 incubator. After the culture period colonies are counted under a dissecting microscope.

[3] = test system: bone marrow mononuclear cells of mice; experiment: Induction of RA activity in mouse bone marrow (QPCR of RA target genes); type: in vivo; settings: intravenous 40 μg/kg once per day for two days, versus vehicle
Method: Human and mouse bone marrow stromal cells express CYP26 enzymes and Cyp26B1 is highly inducible by RA in these cells. This experiment tests whether exposure of bone marrow to a CYP26 inhibitor is sufficient to raise RA levels in the bone marrow and induce RA-target genes. Mice (8-12 week old) were given intravenous injections (tall vein) on two consecutive days (once per day) of CYP26 inhibitor compound dissolved in 0.9% sodium chloride/0.1% DMSO. Animals were given a dose of 40 μg/kg of inhibitor, or an equal volume of vehicle alone. The morning after the second injection, animals were sacrificed, and bone marrow mononuclear cells were harvested from femurs using Lympholyte-mammal reagent (available from Cedarlane, Burlington, Canada). RNA was then extracted from isolated cells, and RA target gene expression assessed by qPCR.

MC3T3-E1 cells = experiment: Osteoblast cell differentiation, MC3T3-E1 cells; type: cell-based, mouse
Method: These experiments are used to test the ability of CYP26 inhibitors to reduce or block osteoblast differentiation in vitro using a cell culture model. MC3T3-E1 mouse calvarias pre-osteoblasts (available from the American Type Culture Collection) were cultured in MEM-α without ascorbic acid. To induce osteoblast differentiation and matrix mineralization, cells are switched to medium containing ascorbic acid (50 μg/ml) and phosphate (10 mM β-glycerophosphate) and cultured for up to 21 days while changing media every 2-3 days. Cells are also treated with varying concentrations of RA or CYP26 inhibitor compound to assess effects on osteoblast differentiation. At the end of the treatment period, cells in 24-well plates and fixed in 70% ethanol, and stained with Alizarin red (40 mM pH 4.2) to visualize calcified extracellular matrix, indicative of osteoblast differentiation. Stained wells were photographed under a Leica MZ95 dissecting microscope. Other cells grown in 6 well plates are used for RNA extraction, and qPCR analysis of bone differentiation markers and RA target genes.

Sequence of CYP26B1 (Q9NR63 whole entry): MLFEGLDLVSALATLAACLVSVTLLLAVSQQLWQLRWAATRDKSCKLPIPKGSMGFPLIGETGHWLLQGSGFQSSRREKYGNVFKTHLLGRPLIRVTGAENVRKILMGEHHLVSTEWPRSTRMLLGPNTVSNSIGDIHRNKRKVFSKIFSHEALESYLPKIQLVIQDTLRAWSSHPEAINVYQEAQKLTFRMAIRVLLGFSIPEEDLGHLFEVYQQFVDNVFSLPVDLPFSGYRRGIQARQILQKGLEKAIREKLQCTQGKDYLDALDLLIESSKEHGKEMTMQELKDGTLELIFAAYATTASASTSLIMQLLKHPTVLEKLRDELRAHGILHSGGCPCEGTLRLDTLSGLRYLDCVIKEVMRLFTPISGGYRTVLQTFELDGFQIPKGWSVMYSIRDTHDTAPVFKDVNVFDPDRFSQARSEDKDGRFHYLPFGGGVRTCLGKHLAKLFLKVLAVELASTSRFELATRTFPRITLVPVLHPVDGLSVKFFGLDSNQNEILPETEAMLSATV

In the case of `CC(C)(C)c1cccc(-c2cc3cc(/C=C/C(=O)O)ccc3[nH]2)c1` [Compound 026], the “CYP26B1 inhibition compared with ketoconazole” value (CYP26B1; FIG. 2) is reported as “dramatically increased inhibition of CYP26B1 enzyme activity compared with ketoconazole”, the “Selectivity CYP26B1 versus CYP26A1” value (CYP26B1; HeLa cell-based assay) is reported as “highly selective towards CYP26B1” and the IC50 (CYP26B1; HeLa cell-based assay, 3 hours) is reported as 200 nM. The “CYP26B1 Rel. to keto” value (CYP26B1; IC50 relative to ketoconazole) was 0.02, the “Expression of RA target genes in response to RA, co-treatment” value [1] was “greatly enhanced and prolonged expression of RA target genes” and the “RA metabolism, basal and RA-induced” value [2] was “efficiently blocked both basal and RA-induced RA metabolism”. The “RA metabolism, basal and RA-induced” value (MC3T3 cells) was “block basal as well as RA-induced RA metabolism in these cells in a dose-dependent manner”, the Colony forming units (THP-1 cells) was “rescued the effects of RA and decreased colony forming units” and the “Expression of Cyp26a1 and Crabp2 in bone marrow mononuclear cells” value [3] was “both induced”. For the same compound, the “Bglap and Ibsp expression” value (MC3T3-E1 cells; 10 nmol RA plus 1 μM compound) was “suppressing Bglap and Ibsp expression”, the “Bglap and Ibsp expression” value (MC3T3-E1 cells; 10 μM compound, osteogenic medium) was “blocked their expression” and the Cyp26b1 gene expression (MC3T3-E1 cells; compared with controls) was “dramatic upregulation of Cyp26b1”. For the same compound, the “Calcified matrix (alizarin red staining)” value (MC3T3-E1 cells; osteogenic medium, 21 days, increasing concentrations) was “reduced by the presence of compound 026 in a dose-dependent manner”.
